Measurements published in patent publication US10221177B2 (HYDRA BIOSCIENCES, INC., priority 2014, dated 2019).

Biological target: human TRPA1 (Homo sapiens (Human), UniProt O75762)
Assay: In vitro inhibition of human TRPA1, whole cell patch configuration
Assay type: cell-based
Details: current activation 10 μM AITC, tested concentrations 320 pM to 3.2 μM, read-out: hTRPA1 IC50
How it was run: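 Whole-cell patch clamp, bath 150 mM NaCl, 10 mM HEPES, 1 mM EGTA, 3 mM MgCl2, pH 7.4 (sometimes 2 mM CaCl2, 1 mM MgCl2). Currents recorded continuously at −60 mV or by 400 ms ramps from −40 mV holding every 4 s; inward/outward currents taken at −80/80 mV, with controlled-temperature focal perfusion.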

Chain of human TRPA1 (O75762 whole entry): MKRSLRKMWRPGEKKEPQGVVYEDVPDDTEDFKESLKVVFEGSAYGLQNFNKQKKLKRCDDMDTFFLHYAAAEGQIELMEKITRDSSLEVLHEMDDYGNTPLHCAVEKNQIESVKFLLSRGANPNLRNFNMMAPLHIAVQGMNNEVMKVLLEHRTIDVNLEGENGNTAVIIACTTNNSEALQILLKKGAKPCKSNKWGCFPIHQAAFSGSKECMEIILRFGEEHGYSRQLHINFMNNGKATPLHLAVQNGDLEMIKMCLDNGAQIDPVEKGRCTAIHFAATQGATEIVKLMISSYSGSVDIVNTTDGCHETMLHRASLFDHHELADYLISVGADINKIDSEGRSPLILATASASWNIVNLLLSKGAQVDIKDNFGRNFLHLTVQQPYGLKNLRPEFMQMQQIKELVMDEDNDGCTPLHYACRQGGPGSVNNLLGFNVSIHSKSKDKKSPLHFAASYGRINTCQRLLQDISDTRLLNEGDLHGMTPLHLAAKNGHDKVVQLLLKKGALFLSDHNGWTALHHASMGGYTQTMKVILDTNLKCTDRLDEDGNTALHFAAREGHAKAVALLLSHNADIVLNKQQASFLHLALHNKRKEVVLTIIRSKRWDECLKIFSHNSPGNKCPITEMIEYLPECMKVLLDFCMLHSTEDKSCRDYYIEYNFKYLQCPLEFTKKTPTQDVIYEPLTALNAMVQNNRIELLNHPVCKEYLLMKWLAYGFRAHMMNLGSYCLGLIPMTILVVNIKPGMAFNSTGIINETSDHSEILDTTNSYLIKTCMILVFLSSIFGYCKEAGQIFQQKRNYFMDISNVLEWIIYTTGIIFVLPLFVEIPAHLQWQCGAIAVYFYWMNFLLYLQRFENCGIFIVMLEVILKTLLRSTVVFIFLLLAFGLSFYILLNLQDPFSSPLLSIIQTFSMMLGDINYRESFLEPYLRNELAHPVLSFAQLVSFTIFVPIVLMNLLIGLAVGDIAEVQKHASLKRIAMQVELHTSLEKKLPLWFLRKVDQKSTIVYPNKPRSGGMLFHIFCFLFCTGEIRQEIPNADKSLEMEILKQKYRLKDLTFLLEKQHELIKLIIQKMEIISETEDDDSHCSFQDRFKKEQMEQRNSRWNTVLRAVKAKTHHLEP

SMILES | IC50 [nM]
Cc1cc(Cn2c(=O)c3c(ncn3CC(=O)Nc3cccc(-c4cnc(C)c(C(F)(F)F)c4)n3)n(C)c2=O)no1 [Compound 238, 2-(3-methyl-1-((5-methylisoxazol-3-yl)methyl)-2,6-dioxo-2,3-dihydro-1H-purin-7(6H)-yl)-N-(6′-methyl-5′-(trifluoromethyl)-[2,3′-bipyridin]-6-yl)acetamide] | 4
Cc1ncc(-c2cccc(NC(=O)Cn3cnc4c3c(=O)n(Cc3ccon3)c(=O)n4C)n2)cc1C(F)(F)F [Compound 239, 2-(1-(isoxazol-3-ylmethyl)-3-methyl-2,6-dioxo-2,3-dihydro-1H-purin-7(6H)-yl)-N-(6′-methyl-5′-(trifluoromethyl)-[2,3′-bipyridin]-6-yl)acetamide] | 3
Cc1nc(Cn2c(=O)c3c(ncn3CC(=O)Nc3cccc(-c4cnc(C)c(C(F)(F)F)c4)n3)n(C)c2=O)no1 [Compound 240] | 7
Cc1noc(Cn2c(=O)c3c(ncn3CC(=O)Nc3cccc(-c4cnc(C)c(C(F)(F)F)c4)n3)n(C)c2=O)n1 [Compound 241] | 1
CC(=O)CCn1c(=O)c2c(ncn2CC(=O)Nc2cccc(-c3cnc(C)c(C(F)(F)F)c3)n2)n(C)c1=O [Compound 242, 2-(3-methyl-2,6-dioxo-1-(3-oxobutyl)-2,3-dihydro-1H-purin-7(6H)-yl)-N-(6′-methyl-5′-(trifluoromethyl)-[2,3′-bipyridin]-6-yl)acetamide] | 290
CCC(=O)Cn1c(=O)c2c(ncn2CC(=O)Nc2cncc(-c3cnc(C)c(C(F)(F)F)c3)n2)n(C)c1=O [Compound 243, 2-(3-methyl-2,6-dioxo-1-(2-oxobutyl)-2,3-dihydro-1H-purin-7(6H)-yl)-N-(6-(6-methyl-5-(trifluoromethyl)pyridin-3-yl)pyrazin-2-yl)acetamide] | 6
CC(=O)Cn1c(=O)c2c(ncn2CC(=O)Nc2cncc(-c3cnc(C)c(C(F)(F)F)c3)n2)n(C)c1=O [Compound 245, 2-(3-methyl-2,6-dioxo-1-(2-oxopropyl)-2,3-dihydro-1H-purin-7(6H)-yl)-N-(6-(6-methyl-5-(trifluoromethyl)pyridin-3-yl)pyrazin-2-yl)acetamide] | 8
Cc1cc(Cn2c(=O)c3c(ncn3CC(=O)Nc3csc(-c4cnc(C)c(C(F)(F)F)c4)n3)n(C)c2=O)no1 [Compound 246, 2-(3-methyl-1-((5-methylisoxazol-3-yl)methyl)-2,6-dioxo-2,3-dihydro-1H-purin-7(6H)-yl)-N-(2-(6-methyl-5-(trifluoromethyl)pyridin-3-yl)thiazol-4-yl)acetamide] | 1
CCC(=O)Cn1c(=O)c2c(ncn2CC(=O)Nc2csc(-c3cnc(C)c(C(F)(F)F)c3)n2)n(C)c1=O [Compound 247, 2-(3-methyl-2,6-dioxo-1-(2-oxobutyl)-2,3-dihydro-1H-purin-7(6H)-yl)-N-(2-(6-methyl-5-(trifluoromethyl)pyridin-3-yl)thiazol-4-yl)acetamide] | 2
Cc1nc(Cn2c(=O)c3c(ncn3CC(=O)Nc3csc(-c4cnc(C)c(C(F)(F)F)c4)n3)n(C)c2=O)no1 [Compound 248, 2-(3-methyl-1-((5-methyl-1,2,4-oxadiazol-3-yl)methyl)-2,6-dioxo-2,3-dihydro-1H-purin-7(6H)-yl)-N-(2-(6-methyl-5-(trifluoromethyl)pyridin-3-yl)thiazol-4-yl)acetamide] | 4
CCC(=O)Cn1c(=O)c2c(ncn2CC(=O)Nc2csc(-c3cnc(C(F)(F)F)c(C)c3)n2)n(C)c1=O [Compound 249, 2-(3-methyl-2,6-dioxo-1-(2-oxobutyl)-2,3-dihydro-1H-purin-7(6H)-yl)-N-(2-(5-methyl-6-(trifluoromethyl)pyridin-3-yl)thiazol-4-yl)acetamide] | 6
Cc1noc(Cn2c(=O)c3c(ncn3CC(=O)Nc3csc(-c4cnc(C(F)(F)F)c(C)c4)n3)n(C)c2=O)n1 [Compound 250, 2-(3-methyl-1-((3-methyl-1,2,4-oxadiazol-5-yl)methyl)-2,6-dioxo-2,3-dihydro-1H-purin-7(6H)-yl)-N-(2-(5-methyl-6-(trifluoromethyl)pyridin-3-yl)thiazol-4-yl)acetamide] | 6
Cc1cc(-c2nc(NC(=O)Cn3cnc4c3c(=O)n(CC(F)(F)F)c(=O)n4C)cs2)cnc1C(F)(F)F [Compound 251, 2-(3-methyl-2,6-dioxo-1-(2,2,2-trifluoroethyl)-2,3-dihydro-1H-purin-7(6H)-yl)-N-(2-(5-methyl-6-(trifluoromethyl)pyridin-3-yl)thiazol-4-yl)acetamide] | 219
Cc1noc(Cn2c(=O)c3c(ncn3CC(=O)Nc3csc(-c4cnc(C)c(C(F)(F)F)c4)n3)n(C)c2=O)n1 [Compound 252, 2-(3-methyl-1-((3-methyl-1,2,4-oxadiazol-5-yl)methyl)-2,6-dioxo-2,3-dihydro-1H-purin-7(6H)-yl)-N-(2-(6-methyl-5-(trifluoromethyl)pyridin-3-yl)thiazol-4-yl)acetamide] | 1
COCC(=O)Cn1c(=O)c2c(ncn2CC(=O)Nc2csc(-c3cnc(C)c(C(F)(F)F)c3)n2)n(C)c1=O [Compound 254, 2-(1-(3-methoxy-2-oxopropyl)-3-methyl-2,6-dioxo-2,3-dihydro-1H-purin-7(6H)-yl)-N-(2-(6-methyl-5-(trifluoromethyl)pyridin-3-yl)thiazol-4-yl)acetamide] | 14
COCC(=O)Cn1c(=O)c2c(ncn2CC(=O)Nc2csc(-c3cnc(C(F)(F)F)c(C)c3)n2)n(C)c1=O [Compound 255, 2-(1-(3-methoxy-2-oxopropyl)-3-methyl-2,6-dioxo-2,3-dihydro-1H-purin-7(6H)-yl)-N-(2-(5-methyl-6-(trifluoromethyl)pyridin-3-yl)thiazol-4-yl)acetamide] | 13
CCC(=O)Cn1c(=O)c2c(ncn2[C@@H](C)C(=O)Nc2cccc(-c3cnc(N4CC5C(C4)C5(F)F)cn3)n2)n(C)c1=O (stereo partly drawn) [Compound 256, (2S)—N-(6-(5-(6,6-difluoro-3-azabicyclo[3.1.0]hexan-3-yl)pyrazin-2-yl)pyridin-2-yl)-2-(3-methyl-2,6-dioxo-1-(2-oxobutyl)-2,3-dihydro-1H-purin-7(6H)-yl)propanamide] | 5
CC(=O)Cn1c(=O)c2c(ncn2[C@@H](C)C(=O)Nc2cccc(-c3cnc(N4CC5C(C4)C5(F)F)cn3)n2)n(C)c1=O (stereo partly drawn) [Compound 257, (2S)—N-(6-(5-(6,6-difluoro-3-azabicyclo[3.1.0]hexan-3-yl)pyrazin-2-yl)pyridin-2-yl)-2-(3-methyl-2,6-dioxo-1-(2-oxopropyl)-2,3-dihydro-1H-purin-7(6H)-yl)propanamide] | 11

The next lines start with the values.

IC50 [nM] | SMILES
7 | COCC(=O)Cn1c(=O)c2c(ncn2[C@@H](C)C(=O)Nc2cccc(-c3ccc(N4CC5C(C4)C5(F)F)nc3)n2)n(C)c1=O (stereo partly drawn) [Compound 258, (2S)—N-(6′-(6,6-difluoro-3-azabicyclo[3.1.0]hexan-3-yl)-[2,3′-bipyridin]-6-yl)-2-(1-(3-methoxy-2-oxopropyl)-3-methyl-2,6-dioxo-2,3-dihydro-1H-purin-7(6H)-yl)propanamide]
17 | Cc1cc(Cn2c(=O)c3c(ncn3CC(=O)Nc3csc(-c4cnc(C(F)(F)F)nc4)n3)n(C)c2=O)no1 [Compound 259, 2-(3-methyl-1-((5-methylisoxazol-3-yl)methyl)-2,6-dioxo-2,3-dihydro-1H-purin-7(6H)-yl)-N-(2-(2-(trifluoromethyl)pyrimidin-5-yl)thiazol-4-yl)acetamide]
17 | Cc1noc(Cn2c(=O)c3c(ncn3CC(=O)Nc3csc(-c4cnc(C(F)(F)F)nc4)n3)n(C)c2=O)n1 [Compound 260, 2-(3-methyl-1-((3-methyl-1,2,4-oxadiazol-5-yl)methyl)-2,6-dioxo-2,3-dihydro-1H-purin-7(6H)-yl)-N-(2-(2-(trifluoromethyl)pyrimidin-5-yl)thiazol-4-yl)acetamide]
5 | CC#CCn1c(=O)c2c(ncn2[C@@H](C)C(=O)Nc2cncc(-c3cnc(N4CC5CC5C4)nc3)n2)n(C)c1=O (stereo partly drawn) [Compound 261]
1 | CC#CCn1c(=O)c2c(ncn2[C@@H](C)C(=O)Nc2csc(-c3ccc(N4CC5C(C4)C5(F)F)nc3)n2)n(C)c1=O (stereo partly drawn) [Compound 262, (2S)-2-(1-(but-2-yn-1-yl)-3-methyl-2,6-dioxo-2,3-dihydro-1H-purin-7(6H)-yl)-N-(2-(6-(6,6-difluoro-3-azabicyclo[3.1.0]hexan-3-yl)pyridin-3-yl)thiazol-4-yl)propanamide]
4 | CC#CCn1c(=O)c2c(ncn2[C@@H](C)C(=O)Nc2csc(-c3ccc(N4CC5CC5C4)nc3)n2)n(C)c1=O (stereo partly drawn) [Compound 263, (2S)—N-(2-(6-(3-azabicyclo[3.1.0]hexan-3-yl)pyridin-3-yl)thiazol-4-yl)-2-(1-(but-2-yn-1-yl)-3-methyl-2,6-dioxo-2,3-dihydro-1H-purin-7(6H)-yl)propanamide]
31 | COCC(=O)Cn1c(=O)c2c(ncn2[C@@H](C)C(=O)Nc2csc(-c3cnc(N4CC5CC5C4)cn3)n2)n(C)c1=O (stereo partly drawn) [Compound 264, (2S)—N-(2-(5-(3-azabicyclo[3.1.0]hexan-3-yl)pyrazin-2-yl)thiazol-4-yl)-2-(1-(3-methoxy-2-oxopropyl)-3-methyl-2,6-dioxo-2,3-dihydro-1H-purin-7(6H)-yl)propanamide]
3 | COCC(=O)Cn1c(=O)c2c(ncn2[C@@H](C)C(=O)Nc2csc(-c3cnc(N4CC5C(C4)C5(F)F)nc3)n2)n(C)c1=O (stereo partly drawn) [Compound 265, (2S)—N-(2-(2-(6,6-difluoro-3-azabicyclo[3.1.0]hexan-3-yl)pyrimidin-5-yl)thiazol-4-yl)-2-(1-(3-methoxy-2-oxopropyl)-3-methyl-2,6-dioxo-2,3-dihydro-1H-purin-7(6H)-yl)propanamide]
7 | COCC(=O)Cn1c(=O)c2c(ncn2[C@@H](C)C(=O)Nc2cccc(-c3cnc(N4CC5CC5C4)cn3)n2)n(C)c1=O (stereo partly drawn) [Compound 266, (2S)—N-(6-(5-(3-azabicyclo[3.1.0]hexan-3-yl)pyrazin-2-yl)pyridin-2-yl)-2-(1-(3-methoxy-2-oxopropyl)-3-methyl-2,6-dioxo-2,3-dihydro-1H-purin-7(6H)-yl)propanamide]
